Test results published in US7667052B2 (Eisai R&D Management Co., Ltd., priority 2003, dated 2010).
Like-named read-outs stand apart in the source and are kept apart here.

Experiments:
[1] = system: VEGF production in U251 human glioma cell; assay: VEGF production suppressing action under low oxygen, ELISA; type: cell-based; settings: for VEGF production suppressing action: IC50: U251, low oxygen (2% O2) incubator 18 hours; for VEGF production suppression, in words: U251, low oxygen stimulation
Protocol: U251 human glioma cell cultured in DULBECCO-modified eagle medium (DMEM; manufactured by SIGMA Co., Ltd.) containing 10% fetal calf serum, penicillin (100 unit/ml) and streptomycin (100 μg/ml) was dispensed in 96-well plates by 4×10^4 cells/well. After culturing at 37° C. overnight in a CO2 incubator (5% CO2), the media were removed, and 180 μl of the above-mentioned incubation solution was charged. After adding 20 μL of the above-mentioned incubation solution containing the test compound diluted with 3-fold succession, they were incubated in a low oxygen (2% O2) incubator for 18 hours. The supernatants thereof were measured by an ELISA kit (Immunobiology Research Institute).
Concentration at which the amount of VEGF expressed by low oxygen stimulation was suppressed to 50% (IC50 value) was determined and results are shown in Table 9. […] The activities of 11107F and 11107G were very weak.

[2] = Solubility (physico-chemical properties of the 11107 analogues); settings: in dimethylsulfoxide, pyridine, methanol, acetone and water
[3] = system: transcription from VEGF promoter; assay: VEGF transcription-suppressing activity, VEGF-PLAP reporter in U251/1-8 cell; type: cell-based; settings: Homo sapiens, U-251, U251/1-8 cell, PLAP activity, low oxygen 18 hours
Method in brief: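 U251 glioma clone stably carrying a ~2.3 kb human VEGF promoter–secreted PLAP reporter, 4×10^4 cells/well, exposed to 3-fold dilutions of compound for 18 h under low oxygen. Supernatant PLAP read by chemiluminescence at pH 10.0; IC50 = 50% suppression, normoxia 0%, hypoxia 100%.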

[4] = read-out: IC50 values of VEGF transcription-suppressing activity (range given)
[5] = read-out: VEGF transcription suppressing activity (IC50: nM)

Row | Structure (SMILES) | VEGF production suppressing action: IC50 [1] | Solubility [2] | IC50 [3, 4] | IC50 [3, 5] | VEGF production suppression, in words [1]
1 | CCC(O)C(C)C1OC1CC(C)/C=C/C=C(\C)C1OC(=O)CC(O)CCC(C)(O)C(O)/C=C/C1C (stereo not shown) [11107 A] | 0.111 µg/mL |  |  |  | 
2 | CCC(=O)C(C)C1OC1CC(C)/C=C/C=C(\C)C1OC(=O)CC(O)CCC(C)(O)C(OC(C)=O)/C=C/C1C (stereo not shown) [11107 C] | 0.003 µg/mL |  |  |  | 
3 | CCC(O)C(C)C1OC1CC(C)(O)/C=C/C=C(\C)C1OC(=O)CC(O)CCC(C)(O)C(OC(C)=O)/C=C/C1C (stereo not shown) [11107 D] | 0.0032 µg/mL |  |  |  | 
4 | CCC(O)C(C)(O)C1OC1CC(C)/C=C/C=C(\C)C1OC(=O)CC(O)CCC(C)(O)C(OC(C)=O)/C=C/C1C (stereo not shown) [11107 E] | 0.0363 µg/mL |  |  |  | 
5 | CCC(O)C(C)C1OC1CC(C)/C=C/C=C(\C)C1OC(=O)CC(O)CCC(O)(COC(C)=O)C(O)/C=C/C1C (stereo not shown) [11107AB] |  | soluble in dimethylsulfoxide, pyridine, methanol and acetone, and slightly soluble in water | 1 to 100 nM |  | 
6 | CC(=O)OC1/C=C/C(C)C(/C(C)=C/C=C/C(C)C/C=C/C(C)C(O)C(C)O)OC(=O)CC(O)CCC1(C)O (stereo not shown) [11107AJ] |  | soluble in dimethylsulfoxide, pyridine, methanol and acetone, and slightly soluble in water | 1 to 100 nM |  | 
7 | CCC(=O)C(C)C1OC1CC(C)/C=C/C=C(\C)C1OC(=O)CC(O)/C=C/C(C)(O)C(OC(C)=O)/C=C/C1C (stereo not shown) [11107AL] |  | soluble in dimethylsulfoxide, pyridine, methanol and acetone, and slightly soluble in water | 1 to 100 nM |  | 
8 | CCC(O)C(C)C1OC1CC(C)/C=C/C=C(\C)C1OC(=O)CC(O)CCC2(CO2)C(OC(C)=O)/C=C/C1C (stereo not shown) [11107AM] |  | soluble in dimethylsulfoxide, pyridine, methanol and acetone, and slightly soluble in water | 1 to 100 nM | 2.6 nM | 
9 | CCC(O)C(C)C1OC1CC(C)/C=C/C=C(\C)C1OC(=O)CC(O)/C=C/C2(CO2)C(OC(C)=O)/C=C/C1C (stereo not shown) [11107AN] |  | soluble in dimethylsulfoxide, pyridine, methanol and acetone, and slightly soluble in water | 1 to 100 nM |  | 
10 | CCC(O)C(C)C1OC1CC(C)/C=C/C=C(\C)C1OC(=O)CC(O)/C=C/C(C)(OC(C)=O)C(OC(C)=O)/C=C/C1C (stereo not shown) [11107AP] |  | soluble in dimethylsulfoxide, pyridine, methanol and acetone, and slightly soluble in water | 1 to 100 nM |  | 
11 | CCC(O)C(C)C1OC1CC(C)/C=C/C=C(\C)C1OC(=O)CC(O)CCC(C)(OC(C)=O)C(OC(C)=O)/C=C/C1C (stereo not shown) [11107AQ] |  | soluble in dimethylsulfoxide, pyridine, methanol and acetone, and slightly soluble in water | 1 to 100 nM |  | 
12 | CC(=O)OC1/C=C/C(C)C(/C(C)=C/C=C/C(C)CC2OC2C(C)C(O)C(C)O)OC(=O)CC(O)CCC1(C)O (stereo not shown) [11107AW] |  | soluble in dimethylsulfoxide, pyridine, methanol and acetone, and slightly soluble in water | 1 to 100 nM |  | 
13 | CCC(O)C(C)C1OC1C(O)C(C)/C=C/C=C(\C)C1OC(=O)CC(O)/C=C/C(C)(O)C(OC(C)=O)/C=C/C1C (stereo not shown) [11107AX] |  | soluble in dimethylsulfoxide, pyridine, methanol and acetone, and slightly soluble in water | 1 to 100 nM |  | 
14 | CCC1OC1C(O)C(C)/C=C/C=C(\C)C1OC(=O)CC(O)CCC(C)(O)C(OC(C)=O)/C=C/C1C (stereo not shown) [11107AY] |  | soluble in dimethylsulfoxide, pyridine, methanol and acetone, and slightly soluble in water | 1 to 100 nM |  | 
15 | CC(=O)OC1/C=C/C(C)C(/C(C)=C/C=C/C(C)CC2OC2C(C)C(O)C(C)O)OC(=O)CC(O)CC(O)C1(C)O (stereo not shown) [11107AZ] |  | soluble in dimethylsulfoxide, pyridine, methanol and acetone, and slightly soluble in water | 1 to 100 nM |  | 
16 | CCC1OC1(C)C(O)C(C)/C=C/C=C(\C)C1OC(=O)CC(O)CCC(C)(O)C(OC(C)=O)/C=C/C1C (stereo not shown) [11107BG] |  | soluble in dimethylsulfoxide, pyridine, methanol and acetone, and slightly soluble in water | 1 to 100 nM |  | 
17 | CCC(O)C(C)C1OC1CC(C)/C=C/C=C(\C)C1OC(=O)CC(O)CC(=O)C(C)(O)C(OC(C)=O)/C=C/C1C (stereo not shown) [11107BH] |  | soluble in dimethylsulfoxide, pyridine, methanol and acetone, and slightly soluble in water | 1 to 100 nM | 2.6 nM | 
18 | CCC(O)C(C)/C=C/CC(C)/C=C/C=C(\C)C1OC(=O)CC(O)CCC(C)(O)C(OC(C)=O)/C=C/C1C (stereo not shown) [11107BI] |  | soluble in dimethylsulfoxide, pyridine, methanol and acetone, and slightly soluble in water | 1 to 100 nM |  | 

Row | Structure (SMILES) | VEGF production suppressing action: IC50 [1] | Solubility [2] | IC50 [3, 4] | IC50 [3, 5] | VEGF production suppression, in words [1]
19 | CCC(=O)C(C)C1OC1CC(C)/C=C/C=C(\C)C1OC(=O)CC(O)CCC(C)(O)C(OC(C)=O)/C=C/C1C (stereo not shown) [11107C, (8E,12E,14E)-7-Acetoxy-3,6-dihydroxy-6,10,12,16,20-pentamethyl-21-oxo-18,19-epoxytricosa-8,12,14-trien-11-olide] |  |  | 1 to 100 nM | 8.2 nM | strong successive to 11107B
20 | CCC(O)C(C)(O)C1OC1CC(C)/C=C/C=C(\C)C1OC(=O)CC(O)CCC(C)(O)C(OC(C)=O)/C=C/C1C (stereo not shown) [11107E] |  | soluble in dimethylsulfoxide, pyridine, methanol and acetone, and slightly soluble in water | 1 to 100 nM |  | 
21 | CCC(O)C(C)C1OC1CC(C)(O)/C=C/C=C(\C)C1OC(=O)CC(O)CCC(C)(O)C(O)/C=C/C1C (stereo not shown) [11107F] |  |  |  |  | very weak
22 | CCC(=O)OC1/C=C/C(C)C(/C(C)=C/C=C/C(C)CC2OC2C(C)C(O)CC)OC(=O)CC(O)CCC1(C)O (stereo not shown) [11107I] |  | soluble in dimethylsulfoxide, pyridine, methanol and acetone, and slightly soluble in water | 1 to 100 nM |  | 
23 | CC(=O)OC1/C=C/C(C)C(/C(C)=C/C=C/C(C)CC2OC2C(C)C(C)O)OC(=O)CC(O)CCC1(C)O (stereo not shown) [11107J] |  | soluble in dimethylsulfoxide, pyridine, methanol and acetone, and slightly soluble in water | 1 to 100 nM | 5.9 nM | 
24 | CCC(O)C(C)C1OC1CC(C)/C=C/C=C(\C)C1OC(=O)CC(O)CC(O)C(C)(O)C(OC(C)=O)/C=C/C1C (stereo not shown) [11107K] |  | soluble in dimethylsulfoxide, pyridine, methanol and acetone, and slightly soluble in water | 1 to 100 nM | 2.7 nM | 
25 | CCC(O)C(C)C1OC1CC(C)/C=C/C=C(\C)C1OC(=O)CC(O)CC(OC(C)=O)C(C)(O)C(OC(C)=O)/C=C/C1C (stereo not shown) [11107L] |  | soluble in dimethylsulfoxide, pyridine, methanol and acetone, and slightly soluble in water | 1 to 100 nM |  | 
26 | CCC(O)C(C)C1OC1CC(C)/C=C/C=C(\C)C1OC(=O)CC(OC(C)=O)CCC(C)(O)C(OC(C)=O)/C=C/C1C (stereo not shown) [11107M] |  | soluble in dimethylsulfoxide, pyridine, methanol and acetone, and slightly soluble in water | 1 to 100 nM |  | 
27 | CCC(O)C(C)C1OC1CC(C)/C=C/C=C(\C)C1OC(=O)CC(O)CCC(O)(COC(C)=O)C(OC(C)=O)/C=C/C1C (stereo not shown) [11107N] |  | soluble in dimethylsulfoxide, pyridine, methanol and acetone, and slightly soluble in water | 1 to 100 nM |  | 
28 | CC(=O)OC1/C=C/C(C)C(/C(C)=C/C=C/C(C)CC(O)/C=C(\C)C(=O)C(C)O)OC(=O)CC(O)CCC1(C)O (stereo not shown) [11107Q] |  | soluble in dimethylsulfoxide, pyridine, methanol and acetone, and slightly soluble in water | 1 to 100 nM |  | 
29 | CC(=O)OC1/C=C/C(C)C(/C(C)=C/C=C/C(C)CC2OC2C(C)O)OC(=O)CC(O)CCC1(C)O (stereo not shown) [11107R] |  | soluble in dimethylsulfoxide, pyridine, methanol and acetone, and slightly soluble in water | 1 to 100 nM |  | 
30 | CCC(O)CC1OC1CC(C)/C=C/C=C(\C)C1OC(=O)CC(O)CCC(C)(O)C(OC(C)=O)/C=C/C1C (stereo not shown) [11107T] |  | soluble in dimethylsulfoxide, pyridine, methanol and acetone, and slightly soluble in water | 1 to 100 nM |  | 
31 | CCC(O)C(C)C1OC1CC/C=C/C=C(\C)C1OC(=O)CC(O)CCC(C)(O)C(OC(C)=O)/C=C/C1C (stereo not shown) [11107U] |  | soluble in dimethylsulfoxide, pyridine, methanol and acetone, and slightly soluble in water | 1 to 100 nM |  | 
32 | CCC(O)C(C)C1OC1CC(C)/C=C/C=C(\C)C1OC(=O)CC(O)CCC(C)(O)CCC(=O)C1C (stereo not shown) [11107V] |  | soluble in dimethylsulfoxide, pyridine, methanol and acetone, and slightly soluble in water |  |  | 
33 | CCC(O)C(C)C1OC1CC(C)/C=C/C=C/C1OC(=O)CC(O)CCC(C)(O)C(OC(C)=O)/C=C/C1C (stereo not shown) [11107W] |  | soluble in dimethylsulfoxide, pyridine, methanol and acetone, and slightly soluble in water | 1 to 100 nM |  | 
34 | CCC(O)C(C)C1OC1CC(C)/C=C/C=C(\C)C1OC(=O)C(C)C(O)CCC(C)(O)C(OC(C)=O)/C=C/C1C (stereo not shown) [11107X] |  | soluble in dimethylsulfoxide, pyridine, methanol and acetone, and slightly soluble in water |  |  | 
35 | CCC(O)C(C)C1OC1CC(C)/C=C/C=C(\C)C1OC(=O)CC(O)CC(O)C(C)C(OC(C)=O)/C=C/C1C (stereo not shown) [11107Y] |  | soluble in dimethylsulfoxide, pyridine, methanol and acetone, and slightly soluble in water | 1 to 100 nM |  | 
36 | CCC(O)C(C)C1OC1CC(C)/C=C/C=C(\C)C1C/C=C/C(OC(C)=O)C(C)(O)CCC(O)CC(=O)O1 (stereo not shown) [11107Z] |  | soluble in dimethylsulfoxide, pyridine, methanol and acetone, and slightly soluble in water | 1 to 100 nM |  | 
